The supplement of paper PMC11061612

Experiments:
[1] = tested on: A4-Fuk (B-Lymphoblastic Leukemia); assay: combination Emax (second highest fraction inhibited in the dose matrix, 72 h); higher = more inhibition; extreme values may be limits of the assay
Outline: (§1)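 Bliss excess equals the observed combination effect minus the expected value EA + EB − EA·EB, where EA and EB are the effects of each agent alone. Combination Emax is the second-highest inhibition within the matrix. Inhibition was scaled from CellTiter-Glo 2.0 luminescence, with 0 set by vehicle wells and 1 by blank wells, after 72 hours of two-drug dosing of cells plated in 1536-well plates.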

[2] = tested on: Ca-Ski (Cervical Carcinoma); assay: as above
Outline: as §1

[3] = tested on: SNU-387 (Hepatocellular Carcinoma); assay: as above
Outline: as §1

[4] = tested on: NCI-H1355 (Lung Adenocarcinoma); assay: as above
Outline: as §1

[5] = tested on: KGN (Other Solid Carcinomas); assay: as above
Outline: as §1

[6] = tested on: HAL-01 (B-Lymphoblastic Leukemia); assay: as above
Outline: as §1

[7] = tested on: MV-4-11 (Acute Myeloid Leukemia); assay: as above
Outline: as §1

[8] = tested on: KMRC-1 (Kidney Carcinoma); assay: as above
Outline: as §1

[9] = tested on: OE33 (Esophageal Adenocarcinoma); assay: as above
Outline: as §1

[10] = tested on: EJM (Plasma Cell Myeloma); assay: Bliss excess, mean over the matrix (fraction); higher = more synergy
Outline: as §1

[11] = tested on: NCI-H650 (Lung Adenocarcinoma); assay: as above
Outline: as §1

[12] = tested on: NCI-H1092 (Small Cell Lung Carcinoma); assay: as above
Outline: as §1

[13] = tested on: ALL-SIL (T-Lymphoblastic Leukemia); assay: as above
Outline: as §1

[14] = tested on: NCI-H2122 (Lung Adenocarcinoma); assay: as above
Outline: as §1

[15] = tested on: LC-1-sq (Squamous Cell Lung Carcinoma); assay: as above
Outline: as §1

[16] = tested on: HCC1500 (Breast Carcinoma); assay: as above
Outline: as §1

[17] = tested on: CADO-ES1 (Ewing's Sarcoma); assay: as above
Outline: as §1

[18] = tested on: KOPN-8 (B-Lymphoblastic Leukemia); assay: as above
Outline: as §1

[19] = tested on: SK-LU-1 (Lung Adenocarcinoma); assay: as above
Outline: as §1

EW-1 (Ewing's Sarcoma) = assay: as above
Outline: as §1

| SMILES | combination Emax [1] | combination Emax [2] | combination Emax [3] | combination Emax [4] | combination Emax [5] | combination Emax [6] | combination Emax [7] | combination Emax [8] | combination Emax [9] | Bliss excess [10] | Bliss excess [11] | Bliss excess [12] | Bliss excess [13] | Bliss excess [14] | Bliss excess [15] | Bliss excess [16] | Bliss excess [17] | Bliss excess [18] | Bliss excess [19] | Bliss excess (EW-1 (Ewing's Sarcoma)) |
| --- | --- | --- | --- | --- | --- | --- | --- | --- | --- | --- | --- | --- | --- | --- | --- | --- | --- | --- | --- | --- |
| CN(CCO)CC[C@H](CSc1ccccc1)Nc1ccc(S(=O)(=O)NC(=O)c2ccc(N3CCC([C@@H](O)c4ccccc4-c4ccc(Cl)cc4)CC3)cc2)cc1S(=O)(=O)C(F)(F)F [AZD4320] + C1CN(CCC1(C(=O)N[C@@H](CCO)C2=CC=C(C=C2)Cl)N)C3=NC=NC4=C3C=CN4 [Capivasertib] (first compound max 1 µM, 7x7, partner max 3 µM) | 0.683 | 0.766 | 0.213 | 0.239 | 0.323 | 0.761 | 1 | 0.51 | 0.0577 | -0.0272 | -0.0252 | -0.0476 | -0.0464 | -0.0234 | -0.02 | -0.0178 | -0.0387 | -0.0266 | -0.0558 | -0.0009 |
| CN(CCO)CC[C@H](CSc1ccccc1)Nc1ccc(S(=O)(=O)NC(=O)c2ccc(N3CCC([C@@H](O)c4ccccc4-c4ccc(Cl)cc4)CC3)cc2)cc1S(=O)(=O)C(F)(F)F [AZD4320] + CCN(CCO)CCCOc1ccc2c(Nc3cc(CC(=O)Nc4cccc(F)c4)[nH]n3)ncnc2c1 [AZD2811] (first compound max 1 µM, 7x7, partner max 1 µM) | 0.417 | 0.907 | 0.227 | 0.239 | 0.497 | 0.835 | 1 | 0.144 | 0.0773 | 0.0454 | -0.0457 | 0.0193 | -0.0124 | 0.0001 | 0.0294 | 0.0758 | -0.0732 | -0.0249 | -0.0232 | 0.146 |
| CN(CCO)CC[C@H](CSc1ccccc1)Nc1ccc(S(=O)(=O)NC(=O)c2ccc(N3CCC([C@@H](O)c4ccccc4-c4ccc(Cl)cc4)CC3)cc2)cc1S(=O)(=O)C(F)(F)F [AZD4320] + C[C@@H]1COCCN1C2=NC(=NC(=C2)C3(CC3)[S@](=N)(=O)C)C4=C5C=CNC5=NC=C4 [AZD6738] (first compound max 1 µM, 7x7, partner max 10 µM) | 0.715 | 0.773 | 0.541 | 0.77 | 0.874 | 1 | 1 | 0.656 | 0.843 | 0.0488 | -0.0234 | -0.0167 | 0.0038 | -0.0269 | 0.0261 | 0.0444 | -0.0031 | -0.0246 | -0.0884 | 0.0574 |
| CN(CCO)CC[C@H](CSc1ccccc1)Nc1ccc(S(=O)(=O)NC(=O)c2ccc(N3CCC([C@@H](O)c4ccccc4-c4ccc(Cl)cc4)CC3)cc2)cc1S(=O)(=O)C(F)(F)F [AZD4320] + Cc1cc2ncnn2cc1Nc1ncc2c(n1)n(C1CCOCC1)c(=O)n2C [AZD7648] (first compound max 1 µM, 7x7, partner max 10 µM) | 0.619 | 0.208 | 0.178 | 0.269 | 0.437 | 0.882 | 1 | 0.222 | 0.222 | 0.0347 | -0.021 | 0.005 | -0.0083 | -0.0074 | -0.0093 | -0.0027 | -0.0361 | -0.0243 | 0.0207 | 0.0033 |
| Cc1c2c(nn1C)CSCc1cc(n(C)n1)CSc1cc(c3ccccc3c1)OCCCc1c(C(=O)O)n(C)c3c-2c(Cl)ccc13 [AZD5991] + Cn1cnc2c(F)c(Nc3ccc(Br)cc3Cl)c(C(=O)NOCCO)cc21 [Selumetinib] (first compound max 1 µM, 7x7, partner max 3 µM) | 1 | 0.633 | 0.619 | 0.316 | 0.299 | 0.624 | 1 | 0.197 | 0.19 | 0.0088 | 0.0222 | -0.03 | 0.0068 | 0.028 | 0.0393 | 0.0093 | -0.0208 | 0.0258 | -0.0225 | -0.0044 |
| Cc1cc2ncnn2cc1Nc1ncc2c(n1)n(C1CCOCC1)c(=O)n2C [AZD7648] + O=C(c1cc(Cc2n[nH]c(=O)c3ccccc23)ccc1F)N1CCN(C(=O)C2CC2)CC1 [Olaparib] (first compound max 10 µM, 7x7, partner max 10 µM) | 0.428 | 0.142 | 0.259 | 0.297 | 0.601 | 0.472 | 0.446 | 0.184 | 0.218 | -0.0369 | -0.0247 | -0.025 | -0.0083 | -0.0124 | -0.042 | -0.0234 | 0.0086 | 0.0196 | -0.066 | -0.0021 |
| Cc1nc(Nc2ncc(C(=O)Nc3c(C)cccc3Cl)s2)cc(N2CCN(CCO)CC2)n1 [Dasatinib] + CC(=O)Nc1cccc(-n2c(=O)n(C3CC3)c(=O)c3c(Nc4ccc(I)cc4F)n(C)c(=O)c(C)c32)c1 [Trametinib] (first compound max 2 µM, 7x7, partner max 1 µM) | 0.848 | 0.774 | 0.511 | 0.482 | 0.8 | 0.526 | 0.791 | 0.739 | 0.641 | -0.0342 | 0.121 | -0.0494 | 0.0316 | 0.0119 | -0.0577 | -0.0599 | -0.0435 | -0.188 | -0.0889 | -0.0586 |
| COc1cc2ncnc(Nc3ccc(F)c(Cl)c3)c2cc1OCCCN1CCOCC1 [Gefitinib] + CC(C)n1c(=O)n(C)c2cnc3cc(F)c(-c4ccc(OCCCN5CCCCC5)nc4)cc3c21 [AZD1390] (first compound max 10 µM, 7x7, partner max 0.3 µM) | 0.307 | 0.292 | 0.169 | 0.133 | 0.368 | 0.488 | 0.754 | 0.0966 | 0.413 | -0.0395 | -0.0791 | -0.0528 | -0.0699 | -0.0508 | -0.0754 | -0.0338 | -0.0634 | -0.0725 | -0.0818 | -0.064 |
| C[C@@H](c1ccc2nccn2c1)n1nnc2ncc(-c3cnn(C)c3)nc21 [Savolitinib] + CC1(C)CCC(CN2CCN(c3ccc(C(=O)NS(=O)(=O)c4ccc(NCC5CCOCC5)c([N+](=O)[O-])c4)c(Oc4cnc5[nH]ccc5c4)c3)CC2)=C(c2ccc(Cl)cc2)C1 [Venetoclax] (first compound max 1 µM, 7x7, partner max 1 µM) | 0.199 | 0.174 | 0.244 | 0.137 | 0.233 | 0.703 | 1 | 0.141 | 0.301 | -0.0127 | -0.0822 | -0.0916 | -0.0072 | -0.0559 | -0.0408 | -0.008 | -0.0549 | 0.0298 | -0.0258 | -0.0386 |
| C[C@@H](c1ccc2nccn2c1)n1nnc2ncc(-c3cnn(C)c3)nc21 [Savolitinib] + Cc1c2c(nn1C)CSCc1cc(n(C)n1)CSc1cc(c3ccccc3c1)OCCCc1c(C(=O)O)n(C)c3c-2c(Cl)ccc13 [AZD5991] (first compound max 1 µM, 7x7, partner max 1 µM) | 1 | 0.212 | 0.342 | 0.207 | 0.303 | 0.291 | 1 | 0.209 | 0.328 | 0.0066 | -0.045 | -0.0875 | -0.0355 | -0.0513 | -0.0163 | -0.001 | 0.0151 | 0.0789 | -0.0291 | -0.0001 |
